Measurements as given in ChEMBL document CHEMBL1201862, “PubChem BioAssay data set” (2004).
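Step 1: Grow cells in 96-well plates. Step 2: Expose to compound for 48 hours at 5 concentrations. Step 3: Interpolate endpoints linearly; if unreached, use highest concentration. GI50: concentration for 50% inhibition of growth.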 The source made the active and inactive calls. No stated cut-off is given here; in the data, active = GI50 up to about 1.1 µM and inactive = higher.

Experiments:
Assay in all cases: growth of human tumour cells (NCI), 48 h
786-0 = test system: 786-0
OVCAR-4 = test system: OVCAR-4
RPMI-8226 = test system: RPMI-8226
SNB-75 = test system: SNB-75
Hs-578T = test system: Hs-578T
IGROV-1 = test system: IGROV-1
SW-620 = test system: SW-620
ACHN = test system: ACHN
COLO 205 = test system: COLO 205
OVCAR-8 = test system: OVCAR-8
MDA-MB-231 = test system: MDA-MB-231
MDA-MB-435 = test system: MDA-MB-435
A549 = test system: A549
SF-539 = test system: SF-539
NCI-H522 = test system: NCI-H522
CAKI-1 = test system: CAKI-1
HOP-92 = test system: HOP-92
EKVX = test system: EKVX
SK-MEL-5 = test system: SK-MEL-5
HT-29 = test system: HT-29
MDA-N = test system: MDA-N
SK-OV-3 = test system: SK-OV-3
SF-295 = test system: SF-295
K562 = test system: K562
OVCAR-3 = test system: OVCAR-3
SK-MEL-2 = test system: SK-MEL-2
LOX IMVI = test system: LOX IMVI
A498 = test system: A498
UACC-257 = test system: UACC-257
SN12C = test system: SN12C
HOP-62 = test system: HOP-62
NCI-H460 = test system: NCI-H460
BT-549 = test system: BT-549
MOLT-4 = test system: MOLT-4
KM12 = test system: KM12
M14 = test system: M14
NCI-H226 = test system: NCI-H226
UO-31 = test system: UO-31
HCT-116 = test system: HCT-116
HCC 2998 = test system: HCC 2998
SNB-19 = test system: SNB-19
U-251 = test system: U-251
OVCAR-5 = test system: OVCAR-5
DU-145 = test system: DU-145
TK-10 = test system: TK-10
NCI/ADR-RES = test system: NCI/ADR-RES
UACC-62 = test system: UACC-62
RXF 393 = test system: RXF 393
SK-MEL-28 = test system: SK-MEL-28
SF-268 = test system: SF-268
PC-3 = test system: PC-3
NCI-H23 = test system: NCI-H23
MCF7 = test system: MCF7
HCT-15 = test system: HCT-15
Malme-3M = test system: Malme-3M

SMILES: CC1(C)CN(CC(=O)O)CC(Cc2ccc(OCC(=O)O)cc2)N(CC(=O)O)CC(C)(C)SS1 (stereo not given)
- GI50 (786-0): > 100 µM (inactive)
- GI50 (OVCAR-4): > 100 µM (inactive)
- GI50 (RPMI-8226): > 100 µM (inactive)
- GI50 (SNB-75): > 100 µM (inactive)
- GI50 (Hs-578T): > 100 µM (inactive)
- GI50 (IGROV-1): > 100 µM (inactive)
- GI50 (SW-620): > 100 µM (inactive)
- GI50 (ACHN): > 100 µM (inactive)
- GI50 (COLO 205): > 100 µM (inactive)
- GI50 (OVCAR-8): > 100 µM (inactive)
- GI50 (MDA-MB-231): > 100 µM (inactive)
- GI50 (MDA-MB-435): > 100 µM (inactive)
- GI50 (A549): > 100 µM (inactive)
- GI50 (SF-539): > 100 µM (inactive)
- GI50 (NCI-H522): > 100 µM (inactive)
- GI50 (CAKI-1): > 100 µM (inactive)
- GI50 (HOP-92): > 100 µM (inactive)
- GI50 (EKVX): > 100 µM (inactive)
- GI50 (SK-MEL-5): > 100 µM (inactive)
- GI50 (HT-29): > 100 µM (inactive)
- GI50 (MDA-N): > 100 µM (inactive)
- GI50 (SK-OV-3): > 100 µM (inactive)
- GI50 (SF-295): > 100 µM (inactive)
- GI50 (K562): > 100 µM (inactive)
- GI50 (OVCAR-3): > 100 µM (inactive)
- GI50 (SK-MEL-2): > 100 µM (inactive)
- GI50 (LOX IMVI): > 100 µM (inactive)
- GI50 (A498): > 100 µM (inactive)
- GI50 (UACC-257): > 100 µM (inactive)
- GI50 (SN12C): > 100 µM (inactive)
- GI50 (HOP-62): > 100 µM (inactive)
- GI50 (NCI-H460): > 100 µM (inactive)
- GI50 (BT-549): > 100 µM (inactive)
- GI50 (MOLT-4): > 100 µM (inactive)
- GI50 (KM12): > 100 µM (inactive)
- GI50 (M14): > 100 µM (inactive)
- GI50 (NCI-H226): > 100 µM (inactive)
- GI50 (UO-31): > 100 µM (inactive)
- GI50 (HCT-116): > 100 µM (inactive)
- GI50 (HCC 2998): > 100 µM (inactive)
- GI50 (SNB-19): > 100 µM (inactive)
- GI50 (U-251): > 100 µM (inactive)
- GI50 (OVCAR-5): > 100 µM (inactive)
- GI50 (DU-145): > 100 µM (inactive)
- GI50 (TK-10): > 100 µM (inactive)
- GI50 (NCI/ADR-RES): > 100 µM (inactive)
- GI50 (UACC-62): > 100 µM (inactive)
- GI50 (RXF 393): > 100 µM (inactive)
- GI50 (SK-MEL-28): > 100 µM (inactive)
- GI50 (SF-268): > 100 µM (inactive)
- GI50 (PC-3): > 100 µM (inactive)
- GI50 (NCI-H23): > 100 µM (inactive)
- GI50 (MCF7): > 100 µM (inactive)
- GI50 (HCT-15): > 100 µM
- GI50 (Malme-3M): > 100 µM (inactive)
